Reference: US20160272626A1, “PYRAZINE DERIVATIVES” (HOFFMANN-LA ROCHE INC., priority 2012, published 2016)
pKd: −log10 of the molar value.

How the values were obtained:
mouse TAAR1 = molecular target: T1, mouse TAAR1 (Mus musculus, UniProt Q923Y8); experiment: Radioligand binding assay on mouse TAAR1; details: for Ki: mouse TAAR1, HEK-293 membranes, first value of cell mouse/rat
T1 construct: expressed in transfected cells; membrane preparation
Procedure: (§1) For the construction of expression plasmids the coding sequences of human, rat and mouse TAAR 1 were amplified from genomic DNA essentially as described by Lindemann et al.. The Expand High Fidelity PCR System (Roche Diagnostics) was used with 1.5 mM Mg^2+ and purified PCR products were cloned into pCR2.1-TOPO cloning vector (Invitrogen) following the instructions of the manufacturer. PCR products were subcloned into the pIRESneo2 vector (BD Clontech, Palo Alto, Calif.), and expression vectors were sequence verified before introduction in cell lines.
(§2) HEK293 cells (ATCC # CRL-1573) were cultured essentially as described by Lindemann et al. (2005). For the generation of stably transfected cell lines HEK293 cells were transfected with the pIRESneo2 expression plasmids containing the TAAR coding sequences (described above) with Lipofectamine 2000 (Invitrogen) according to the instructions of the manufacturer, and 24 hrs post transfection the culture medium was supplemented with 1 mg/ml G418 (Sigma, Buchs, Switzerland). After a culture period of about 10 d clones were isolated, expanded and tested for responsiveness to trace amines (all compounds purchased from Sigma) with the cAMP Biotrak Enzyme immunoassay (EIA) System (Amersham) following the non-acetylation EIA procedure provided by the manufacturer.
Radioligand Binding Assay on Mouse TAAR1
(§3) Membrane Preparation and Radioligand Binding.
HEK-293 cells stably expressing mouse TAAR1 were maintained at 37° C. and 5% CO2 in DMEM high glucose medium, containing fetal calf serum (10%, heat inactivated for 30 min at 56° C.), penicillin/streptomycin (1%), and 375 μg/ml geneticin (Gibco). Cells were released from culture flasks using trypsin/EDTA, harvested, washed twice with ice-cold PBS (without Ca^2+ and Mg^2+), pelleted at 1,000 rpm for 5 min at 4° C., frozen and stored at −80° C. Frozen pellets were suspended in 20 ml HEPES-NaOH (20 mM, pH 7.4) containing 10 mM EDTA and homogenized with a Polytron (PT 6000, Kinematica) at 14,000 rpm for 20 s. The homogenate was centrifuged at 48,000×g for 30 min at 4° C. Subsequently, the supernatant was removed and discarded, and the pellet resuspended in 20 ml HEPES-NaOH (20 mM, pH 7.4) containing 0.1 mM EDTA using the Polytron (20 s at 14,000 rpm). This procedure was repeated and the final pellet resuspended in HEPES-NaOH containing 0.1 mM EDTA and homogenized using the Polytron. Typically, aliquots of 2 ml membrane portions were stored at −80° C. With each new membrane batch the dissociation constant (Kd) was determined via a saturation curve. The TAAR1 radioligand ^3[H]—(S)-4-[(ethyl-phenyl-amino)-methyl]-4,5-dihydro-oxazol-2-ylamine (described in WO 2008/098857) was used at a concentration equal to the calculated Kd value, that was usually around 0.7 nM, resulting in the binding of approximately 0.5% of the radioligand and a specific binding representing approximately 70% of the total binding. Nonspecific binding was defined as the amount of ^3[H]—(S)-4-[(ethyl-phenyl-amino)-methyl]-4,5-dihydro-oxazol-2-ylamine bound in the presence of 10 μM unlabeled ligand. All compounds were tested at a broad range of concentrations (10 pM to 10 μM) in duplicates. The test compounds (20 μl/well) were transferred into a 96 deep well plate (TreffLab), and 180 μl of HEPES-NaOH (20 mM, pH 7.4) containing MgCl2 (10 mM) and CaCl2 (2 mM) (binding buffer), 300 μl of the radioligand ^3[H]—(S)-4-[(ethyl-phenyl-amino)-methyl]-4,5-dihydro-oxazol-2-ylamine at a concentration of 3.3×Kd in nM and 500 μl of the membranes (resuspended at 60 μg protein per ml) added. The 96 deep well plates were incubated for 1 hr at 4° C. Incubations were terminated by rapid filtration through Unifilter-96 plates (Packard Instrument Company) and glass filters GF/C (Perkin Elmer) presoaked for 1 hr in polyethylenimine (0.3%) and washed 3 times with 1 ml of cold binding buffer. […]

rat TAAR1 = molecular target: T2, rat TAAR1 (Rattus norvegicus, UniProt Q923Y9); experiment: Radioligand binding assay on rat TAAR1; details: for Ki: rat TAAR1, HEK-293 membranes, second value of cell mouse/rat
T2 construct: expressed in transfected cells; membrane preparation
Procedure: as §1, §2
Radioligand Binding Assay on Rat TAAR1
as §3
HEK-293 cells stably expressing rat TAAR1 were maintained at 37° C. and 5% CO2 in DMEM high glucose medium, containing fetal calf serum (10%, heat inactivated for 30 min at 56° C.), penicillin/streptomycin (1%), and 375 μg/ml geneticin (Gibco). Cells were released from culture flasks using trypsin/EDTA, harvested, washed twice with ice-cold PBS (without Ca^2+ and Mg^2+), pelleted at 1,000 rpm for 5 min at 4° C., frozen and stored at −80° C. Frozen pellets were suspended in 20 ml HEPES-NaOH (20 mM, pH 7.4) containing 10 mM EDTA and homogenized with a Polytron (PT 6000, Kinematica) at 14,000 rpm for 20 s. The homogenate was centrifuged at 48,000×g for 30 min at 4° C. Subsequently, the supernatant was removed and discarded, and the pellet resuspended in 20 ml HEPES-NaOH (20 mM, pH 7.4) containing 0.1 mM EDTA using the Polytron (20 s at 14,000 rpm). This procedure was repeated and the final pellet resuspended in HEPES-NaOH containing 0.1 mM EDTA and homogenized using the Polytron. Typically, aliquots of 2 ml membrane portions were stored at −80° C. With each new membrane batch the dissociation constant (Kd) was determined via a saturation curve. […] Nonspecific binding was defined as the amount of ^3[H]—(S)-4-[(ethyl-phenyl-amino)-methyl]-4,5-dihydro-oxazol-2-ylamine bound in the presence of 10 μM unlabeled ligand. All compounds were tested at a broad range of concentrations (10 pM to 10 μM) in duplicates. The test compounds (20 μl/well) were transferred into a 96 deep well plate (TreffLab), and 180 μl of HEPES-NaOH (20 mM, pH 7.4) containing MgCl2 (10 mM) and CaCl2 (2 mM) (binding buffer), 300 μl of the radioligand ^3[H]—(S)-4-[(ethyl-phenyl-amino)-methyl]-4,5-dihydro-oxazol-2-ylamine at a concentration of 3.3×Kd in nM and 500 μl of the membranes (resuspended at 50 μg protein per ml) added. The 96 deep well plates were incubated for 1 hr at 4° C. Incubations were terminated by rapid filtration through Unifilter-96 plates (Packard Instrument Company) and glass filters GF/C (Perkin Elmer) presoaked for 1 hr in polyethylenimine (0.3%) and washed 3 times with 1 ml of cold binding buffer. After addition of 45 μl of Microscint 40 (PerkinElmer) the Unifilter-96 plate was sealed and after 1 hr the […] counted using a TopCount Microplate Scintillation Counter (Packard Instrument Company).

T2 sequence (Q923Y9 whole entry): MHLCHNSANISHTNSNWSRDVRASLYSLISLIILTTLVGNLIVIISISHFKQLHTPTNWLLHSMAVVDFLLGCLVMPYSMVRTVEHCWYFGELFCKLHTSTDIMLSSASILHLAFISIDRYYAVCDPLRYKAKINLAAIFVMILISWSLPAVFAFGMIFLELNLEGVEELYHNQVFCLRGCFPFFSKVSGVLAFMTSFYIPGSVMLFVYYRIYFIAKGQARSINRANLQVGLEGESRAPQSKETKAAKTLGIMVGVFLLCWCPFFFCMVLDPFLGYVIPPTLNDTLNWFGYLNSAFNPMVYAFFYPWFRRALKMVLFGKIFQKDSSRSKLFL
T1 sequence (Q923Y8 whole entry): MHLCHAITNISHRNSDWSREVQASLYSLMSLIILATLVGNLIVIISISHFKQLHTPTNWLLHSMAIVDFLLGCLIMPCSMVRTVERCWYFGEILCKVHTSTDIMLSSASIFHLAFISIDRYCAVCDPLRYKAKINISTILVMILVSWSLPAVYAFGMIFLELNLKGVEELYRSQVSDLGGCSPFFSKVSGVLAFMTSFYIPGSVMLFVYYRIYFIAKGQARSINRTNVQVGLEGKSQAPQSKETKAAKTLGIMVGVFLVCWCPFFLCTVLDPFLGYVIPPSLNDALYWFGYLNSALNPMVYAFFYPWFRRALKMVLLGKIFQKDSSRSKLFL

Row | SMILES | Ki (mouse TAAR1) [µM] | Ki (rat TAAR1) [µM] | pKd (mouse TAAR1; mouse TAAR1 membranes, saturation curve, usual value, read-out: dissociation constant (Kd) of the radioligand) | pKd (rat TAAR1; rat TAAR1 membranes, saturation curve, usual value, read-out: dissociation constant (Kd) of the radioligand)
1 | CC(C)c1cncc(C(=O)Nc2ccc([C@H]3CNCCO3)c(F)c2)n1 [Example 21, 6-Isopropyl-pyrazine-2-carboxylic acid ((S)-3-fluoro-4-morpholin-2-yl-phenyl)-amide] | 0.0181 | 0.0849 | – | –
2 | CC(C)c1cncc(C(=O)Nc2ccc([C@H]3CNCCO3)cc2F)n1 [Example 22, 6-Isopropyl-pyrazine-2-carboxylic acid ((S)-2-fluoro-4-morpholin-2-yl-phenyl)-amide] | 0.0522 | 0.391 | – | –
3 | O=C(Nc1ccc([C@H]2CNCCO2)cc1F)c1cnc(OCC(F)(F)F)cn1 [Example 23, (S)—N-(2-Fluoro-4-(morpholin-2-yl)phenyl)-5-(2,2,2-trifluoroethoxy)pyrazine-2-carboxamide] | 0.0046 | 0.0881 | – | –
4 | O=C(Nc1ccc([C@H]2CNCCO2)c(F)c1)c1cnc(OCC(F)(F)F)cn1 [Example 24, (S)—N-(3-Fluoro-4-(morpholin-2-yl)phenyl)-5-(2,2,2-trifluoroethoxy)pyrazine-2-carboxamide] | 0.0042 | 0.0202 | – | –
5 | O=C(Nc1ccc([C@H]2CNCCO2)cc1F)c1cncc(OCC(F)(F)F)n1 [Example 25, (S)—N-(2-Fluoro-4-(morpholin-2-yl)phenyl)-6-(2,2,2-trifluoroethoxy)pyrazine-2-carboxamide] | 0.044 | 0.0122 | – | –
6 | O=C(Nc1ccc([C@H]2CNCCO2)c(F)c1)c1cncc(OCC(F)(F)F)n1 [Example 26, (S)—N-(3-Fluoro-4-(morpholin-2-yl)phenyl)-6-(2,2,2-trifluoroethoxy)pyrazine-2-carboxamide] | 0.0167 | 0.0032 | – | –
7 | O=C(Nc1ccc([C@@H]2CNCCO2)cc1F)c1cnc(OCC(F)(F)F)cn1 [Example 27, (R)—N-(2-Fluoro-4-(morpholin-2-yl)phenyl)-5-(2,2,2-trifluoroethoxy)pyrazine-2-carboxamide] | 0.0059 | 0.0183 | – | –
8 | O=C(Nc1ccc([C@@H]2CNCCO2)c(F)c1)c1cnc(OCC(F)(F)F)cn1 [Example 28, (R)—N-(3-Fluoro-4-(morpholin-2-yl)phenyl)-5-(2,2,2-trifluoroethoxy)pyrazine-2-carboxamide] | 0.0053 | 0.0037 | – | –
9 | O=C(Nc1ccc([C@@H]2CNCCO2)cc1F)c1cncc(OCC(F)(F)F)n1 [Example 29, (R)—N-(2-Fluoro-4-(morpholin-2-yl)phenyl)-6-(2,2,2-trifluoroethoxy)pyrazine-2-carboxamide] | 0.0447 | 0.0053 | – | –
10 | O=C(Nc1ccc([C@@H]2CNCCO2)c(F)c1)c1cncc(OCC(F)(F)F)n1 [Example 30, (R)—N-(3-Fluoro-4-(morpholin-2-yl)phenyl)-6-(2,2,2-trifluoroethoxy)pyrazine-2-carboxamide] | 0.0292 | 0.0035 | – | –
11 | CCN(C[C@H]1COC(N)=N1)c1ccccc1 [^3[H]—(S)-4-[(ethyl-phenyl-amino)-methyl]-4,5-dihydro-oxazol-2-ylamine, reference compound] | – | – | ~9.15 | ~8.64
